Where “and” joins values, the source holds several entries; their conditions need not be identical. Identical values can stand only once. Like-named read-outs stand apart in the source and are kept apart here.
Legend:
CSF1R = CSF1R (Homo sapiens, UniProt P07333); assay: CSF1R kinase inhibition assay; format: biochemical; conditions: read-out: IC50 CSF1R enzymatic activity
Description: For CSF1R inhibition, TK-substrate-biotin and ATP were incubated at room temperature for 40 min, followed by adding different concentrations of […] and TK-antibody-Cryptate into each well of the assay plate and incubation at room temperature for 1 h. The fluorescence signal was read at 615 nm (Cryptate) and 665 nm (XL665) on an Envision 2104 plate reader.

parental Ba/F3 line = assay: Parental Ba/F3 proliferation assay (CTG); format: cell-based; conditions: Mus musculus, BaF3
Description: (§1) The recombinant Ba/F3 cell lines overexpressing human CSF1R, or human RBM6-CSF1R, or human ETV6-CSF1R were generated using a retrovirus vector (Kyinno Co., Ltd. Beijing). The recombinant Ba/F3 lines overexpressing human Kras G12C orEGFR-L718Q mutants, and different mutant variants of FLT3 were also similarly created as well. A standard proliferation assay via CTG readout was performed according to the vendor’s instructions (KYinno Biotechnology Co., Ltd. Beijing).

[1] = tested on: Ba/F3-RBM6-CSF1R cell line; assay: Ba/F3-RBM6-CSF1R proliferation assay (CTG); format: cell-based, mouse; conditions: Mus musculus; not requiring CSF1
Description: as §1

M2 primary macrophages = assay: Primary macrophage proliferation assay; format: cell-based; conditions: Homo sapiens
Description: Human primary monocytes were isolated with an EasySep™ monocyte isolation kit (Stem Cell) from cryopreserved human PBMCs. […] Narazaciclib was serially diluted with culture medium to 9 final concentrations from 0.004 µM to 24 µM. The differentiated macrophages were incubated for 7 days at 37 °C followed by incubation with Cell Counting-Lite2.0 reagent (Vazyme) for 5 min on a shaker. Luminescence was recorded […]. The proliferation inhibition IC50 (half maximal inhibition concentration) of narazaciclib was determined by fitting the dose–response data to a four-parameter stimulation model.

Ba/F3-FLT3-ITD (N701K) = Ba/F3-FLT3-ITD (N701K) proliferation assay; format: cell-based, mouse
Description: as §1

Ba/F3-FLT3 = Ba/F3-FLT3 proliferation assay; format: cell-based, mouse
Description: as §1

PLB-985 = assay: AML cell line in vitro proliferation assay; format: cell-based
Description: (§2) Narazaciclib was serially diluted with culture medium to 9 final assay concentrations from 0.01 to 100 μM. The assay was performed with both a negative control (vehicle) and a positive control (Cisplatin) in triplicate. The AML cell lines at log-growth phase were cultured in 96-well plates (black transparent flat bottom 96-well plate, Corning, Cat# 3603, FBS, ExCell Bio., Cat# FND500) in the presence of narazaciclib or Cisplatin at various concentrations for 72 h or 120 h (only for AML-193 cell line), followed by CTG readout according to the manufacturer’s instruction (CellTiter-Glo Luminescent Cell Viability Assay, Promega, Cat# G7573). Viability%=Lumdrug-Lummedium control/Lumcell control-Lummedium control×100%. Lumcell control-Lummedium controlas100%,LumMediumcontrolas0%. Proliferationfold increase=D5-LumNone treated-LumMedium control/D2LumNone treated-LumMedium control
(§3) Dose–response curves were fitted by a 4-parameter log-logistic model: Inhibition%=Bottom+Top-Bottom/1+10^logEC50-x∗HillSlope where Top and Bottom are the two asymptotes of the sigmoidal curve, EC50 is the relative IC50, concentration x is in log-10 scale and HillSlope is the slope at the EC50 point on the fitted curve. The fitted area under the curve (AUC) was calculated by: Inhibition%=Bottom+Top-Bottom/1+10^logEC50-x∗HillSlope where a represents the log10-transformed minimal concentration and b represents the log10-transformed maximal concentration. An extremely strong positive correlation between the absolute IC50 and AUC is shown in Supplemental Fig. S5.

KG-1 = assay: AML cell line in vitro proliferation assay; format: cell-based
Description: as §2, §3

HNT34 = assay: AML cell line in vitro proliferation assay; format: cell-based
Description: as §2, §3

M07E = assay: AML cell line in vitro proliferation assay; format: cell-based
Description: as §2, §3

OCI-AML-2 = assay: AML cell line in vitro proliferation assay; format: cell-based
Description: as §2, §3

OCI-M2 = assay: AML cell line in vitro proliferation assay; format: cell-based
Description: as §2, §3

NOMO-1 = assay: AML cell line in vitro proliferation assay; format: cell-based
Description: as §2, §3

HEL = assay: AML cell line in vitro proliferation assay; format: cell-based
Description: as §2, §3

HEL-9217 = assay: AML cell line in vitro proliferation assay; format: cell-based
Description: as §2, §3

OCI-AML-5 = assay: AML cell line in vitro proliferation assay; format: cell-based
Description: as §2, §3

SKM-1 = assay: AML cell line in vitro proliferation assay; format: cell-based
Description: as §2, §3

SKNO-1 = assay: AML cell line in vitro proliferation assay; format: cell-based
Description: as §2, §3

Ba/F3-FLT3-ITD (D835F) = Ba/F3-FLT3-ITD (D835F) proliferation assay; format: cell-based, mouse
Description: as §1

[2] = area under the dose–response curve

CSF1R, sequence (P07333 20-972): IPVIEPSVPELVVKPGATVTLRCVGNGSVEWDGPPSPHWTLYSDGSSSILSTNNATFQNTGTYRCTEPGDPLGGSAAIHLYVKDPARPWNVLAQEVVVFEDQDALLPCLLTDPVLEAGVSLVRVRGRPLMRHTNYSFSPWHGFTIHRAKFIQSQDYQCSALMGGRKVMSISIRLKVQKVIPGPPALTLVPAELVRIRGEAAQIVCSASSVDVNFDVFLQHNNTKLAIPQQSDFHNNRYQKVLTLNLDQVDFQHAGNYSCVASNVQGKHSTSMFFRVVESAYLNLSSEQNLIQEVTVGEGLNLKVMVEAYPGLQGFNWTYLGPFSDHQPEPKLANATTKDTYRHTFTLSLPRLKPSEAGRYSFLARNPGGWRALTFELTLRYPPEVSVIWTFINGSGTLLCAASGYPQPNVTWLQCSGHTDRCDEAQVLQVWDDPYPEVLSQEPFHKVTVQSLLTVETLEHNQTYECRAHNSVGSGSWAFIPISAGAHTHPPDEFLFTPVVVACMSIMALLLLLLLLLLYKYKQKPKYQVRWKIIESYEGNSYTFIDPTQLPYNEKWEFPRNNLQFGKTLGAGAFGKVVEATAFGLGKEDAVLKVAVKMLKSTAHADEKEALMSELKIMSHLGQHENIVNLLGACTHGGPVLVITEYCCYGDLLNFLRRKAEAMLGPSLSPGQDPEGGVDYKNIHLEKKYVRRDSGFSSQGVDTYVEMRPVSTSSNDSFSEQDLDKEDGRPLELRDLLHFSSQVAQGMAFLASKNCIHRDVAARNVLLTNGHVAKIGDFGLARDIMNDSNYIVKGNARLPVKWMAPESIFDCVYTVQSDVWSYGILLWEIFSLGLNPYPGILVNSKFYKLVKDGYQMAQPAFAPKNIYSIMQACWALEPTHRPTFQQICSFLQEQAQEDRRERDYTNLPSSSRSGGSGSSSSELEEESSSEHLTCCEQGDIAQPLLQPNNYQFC

## CN1CCN(c2ccc(Nc3ncc4cc(C#N)c(=O)n(C5CCCC5)c4n3)cc2)CC1 [Narazaciclib, narazaciclib]
CSF1R
  IC50: ~0.000285 µM and 0.00029 µM
Parental Ba/F3 line
  IC50: 1.35 µM
[1]
  IC50: 0.0369 µM
M2 primary macrophages; M2-macrophages, read-out: IC50 M2-macrophage proliferation
  IC50: 0.0725 µM
M2 primary macrophages; M-CSF : GM-CSF Ratio 0:100, read-out: IC50 M2-Macrophages Growth Inhibition
  IC50: 3.65 µM
M2 primary macrophages; M-CSF : GM-CSF Ratio 25:75, read-out: IC50 M2-Macrophages Growth Inhibition
  IC50: 3.52 µM
M2 primary macrophages; M-CSF : GM-CSF Ratio 50:50, read-out: IC50 M2-Macrophages Growth Inhibition
  IC50: 3.97 µM
M2 primary macrophages; M-CSF : GM-CSF Ratio 75:25, read-out: IC50 M2-Macrophages Growth Inhibition
  IC50: 3.7 µM
Ba/F3-FLT3-ITD (N701K)
  % of Ba/F3-FLT3 (IC50): 38.91%
Ba/F3-FLT3-ITD (N701K); Mus musculus
  IC50: 0.117 µM
Ba/F3-FLT3; Ba/F3-FLT3
  % of Ba/F3-FLT3 (IC50): 100.00%
Ba/F3-FLT3; Mus musculus, Ba/F3-FLT3 (wild type)
  IC50: 0.301 µM
PLB-985; PLB-985
  Classification by AUC: Insensitive (AUC ≥ 2.8, insensitive)
PLB-985; PLB-985, 72 h, CTG
  IC50: 14.1 µM
PLB-985; PLB-985, area under the dose–response curve
  AUC: 2.988
KG-1; Homo sapiens, KG-1, 72 h, CTG
  IC50: 1.76 µM
KG-1; KG-1
  Classification by AUC: Intermediate (2.4 < AUC < 2.8, intermediate)
KG-1; KG-1, area under the dose–response curve
  AUC: 2.63
HNT34; HNT34
  Classification by AUC: Sensitive (AUC ≤ 2.4, sensitive)
HNT34; HNT34, area under the dose–response curve
  AUC: 2.068
HNT34; HNT-34, HNT34, 72 h, CTG
  IC50: 1.48 µM
M07E
  Classification by AUC: Intermediate (2.4 < AUC < 2.8, intermediate)
M07E; M-07e, 72 h, CTG
  IC50: 4.86 µM
M07E; [2]
  AUC: 2.557
OCI-AML-2; Homo sapiens, OCI-AML2, OCI-AML-2, 72 h, CTG
  IC50: 1.16 µM
OCI-AML-2; OCI-AML-2
  Classification by AUC: Sensitive (AUC ≤ 2.4, sensitive)
OCI-AML-2; OCI-AML-2, area under the dose–response curve
  AUC: 2.116
OCI-M2; OCI-M2
  Classification by AUC: Insensitive (AUC ≥ 2.8, insensitive)
OCI-M2; OCI-M2, 72 h, CTG
  IC50: > 100 µM
OCI-M2; OCI-M2, area under the dose–response curve
  AUC: 3.46
NOMO-1; Homo sapiens, NOMO-1, 72 h, CTG
  IC50: > 100 µM
NOMO-1; NOMO-1
  Classification by AUC: Insensitive (AUC ≥ 2.8, insensitive)
NOMO-1; NOMO-1, area under the dose–response curve
  AUC: 3.207
HEL
  Classification by AUC: Insensitive (AUC ≥ 2.8, insensitive)
HEL; Homo sapiens, 72 h, CTG
  IC50: 15.3 µM
HEL; [2]
  AUC: 3.335
HEL-9217; HEL-9217
  Classification by AUC: Insensitive (AUC ≥ 2.8, insensitive)
HEL-9217; HEL-9217, area under the dose–response curve
  AUC: 3.209
HEL-9217; Homo sapiens, HEL 92.1.7, HEL-9217, 72 h, CTG
  IC50: 15.7 µM
OCI-AML-5; Homo sapiens, OCI-AML-5, 72 h, CTG
  IC50: 0.37 µM
OCI-AML-5; OCI-AML-5
  Classification by AUC: Sensitive (AUC ≤ 2.4, sensitive)
OCI-AML-5; OCI-AML-5, area under the dose–response curve
  AUC: 1.636
SKM-1; Homo sapiens, SKM-1, 72 h, CTG
  IC50: 1.94 µM
SKM-1; SKM-1
  Classification by AUC: Sensitive (AUC ≤ 2.4, sensitive)
SKM-1; SKM-1, area under the dose–response curve
  AUC: 2.323
SKNO-1; SKNO-1
  Classification by AUC: Sensitive (AUC ≤ 2.4, sensitive)
SKNO-1; SKNO-1, 72 h, CTG
  IC50: 0.234 µM
SKNO-1; SKNO-1, area under the dose–response curve
  AUC: 1.97
Ba/F3-FLT3-ITD (D835F)
  % of Ba/F3-FLT3 (IC50): 23.10%
Ba/F3-FLT3-ITD (D835F); Mus musculus
  IC50: 0.0696 µM
